Measurements taken from US12344631B2, “C17 polar-substituted heteroaromatic synthetic triterpenoids and methods of use thereof” (REATA PHARMACEUTICALS, INC., priority 2019, dated 2025).

What was measured:
[1] = test system: RAW 264.7 cells; assay: Nitric oxide suppression assay (IFNγ-induced NO production); format: cell-based, mouse; conditions: for IC50: Mus musculus, RAW264.7, RAW 264.7 cells, 2 h pretreatment, 20 ng/mL interferon gamma 24 h, nitrite by Griess, read-out: NO IC50 (nM) (Mean ± SD); for NO IC50 Relative to RTA 402 (fold) (Mean ± SD): average of ratios from replicate experiments, benchmark RTA 402
Method: Tissue Culture. RAW 264.7, a mouse macrophage cell line, was obtained from American Type Culture Collection (Manassas VA) and maintained in the log phase of growth in Roswell Park Memorial Institute Medium 1640 (RPMI 1640) supplemented with 10% heat inactivated fetal bovine serum (FBS) and 1% penicillin-streptomycin. Cells were cultured and maintained in a humidified incubator at 37° C. under 5% CO2. Cells were sub-cultured every 3 days. […] All cell culture supplies were obtained from Life Technologies (Grand Island, NY) and VWR (Radnor, PA). Nitric Oxide Suppression Assay. RAW 264.7 cells were plated 1 day in advance of experimental treatments at a concentration of 30,000 cells per well onto Falcon-96 well clear bottom plates (Corning, NY) in a total volume of 200 μL per well using RPMI 1640 supplemented with 0.5% fetal bovine serum and 1% penicillin-streptomycin. The next day, cells were pretreated with compounds serially diluted from 1000× stocks. All compounds were dissolved in dimethyl sulfoxide (DMSO) at 10 mM stock solutions. Compounds were subsequently diluted in DMSO and RPMI 1640. Each well received a final concentration of 0.1% DMSO. Cells were pretreated for 2 hours and incubation at 37° C., followed by treatment with 20 ng/mL of interferon gamma (R&D Systems, Minneapolis, MN) per well for 24 hours. […] Afterwards, 50 μL of cell culture supernatant was transferred from each well into a new Falcon-96 well clear bottom plate. […] Afterwards, air bubbles were removed using ethanol vapor and absorbance was measured using a Spectramax M2e plate reader with a wavelength set to 525 nm. Viability was assessed using WST-1 cell proliferation reagent from Roche (Basel, Switzerland). After media was removed for the Nitric Oxide suppression assay, 15 μL of WST-1 reagent was added to each well of cells. Plates were briefly mixed on an orbital shaker and the cells were incubated at 37° C. for 30 minutes. Absorbance was measured using a Spectramax M2e plate reader with wavelengths set to 440 nm and 700 nm. For the ability of compounds to suppress the increase in nitric oxide release caused by interferon gamma, the absolute amount of nitrite that was produced in each well was extrapolated from the nitrite standards using a linear regression fit. All values were then normalized to the DMSO-interferon gamma treated wells and plotted as percent nitric oxide. IC50 values were calculated with a dependence on WST1 viability using Excel and/or GraphPad Prism (San Diego, CA).

[2] = test system: AREc32 reporter cell line (antioxidant response element of rat Gsta2, Nrf2 target gene); assay: AREc32 luciferase reporter activation; format: cell-based, human; conditions: for AREc32 EC2X Relative to RTA 402 (fold) (Mean ± SD): average of ratios from replicate experiments, benchmark RTA 402; for AREc32 Relative to CC in Same Experiment (Mean ± SD): average of ratios from experiments with direct comparisons; for EC (2-fold): human, Arec32, 19 h, concentration increasing luminescence signal 2-fold above vehicle, nineteen hours, read-out: AREc32 EC2X (nM) (Mean ± SD)
Method: […] The effect of several compounds disclosed herein on luciferase reporter activation was assessed in the AREc32 reporter cell line (see Table 10 and Table 11). This cell line is derived from human breast carcinoma MCF-7 cells and is stably transfected with a luciferase reporter gene under the transcriptional control of eight copies of the antioxidant response element from the rat Gsta2 gene, an Nrf2 target gene ([…] et al., 1990). […] Twenty-four hours after plating, cells were treated with vehicle (DMSO) or test compounds at concentrations ranging from 0.03 to 1000 nM for nineteen hours. Media was removed and 100 μL of 1:1 mixture of the One-Glo Luciferase assay reagent and culture medium was added to each well. After incubation for 5 min at room temperature, the luminescence signal was measured on a PHERAstar plate reader. The EC2X value was determined using Excel and GraphPad Prism software. The fold increase in luminescence signal for cells treated with each concentration of compound relative to cells treated with vehicle was determined and a dose-response curve was generated. The dose-response curve was fit using nonlinear regression analysis and used to extrapolate the EC2X value.

[3] = test system: AML-12 hepatocyte cell line; assay: Glutathione assay (total glutathione, GSH-Glo); format: cell-based, mouse; conditions: for EC50: Mus musculus, AML12, AML-12 cells, 24 hours, total glutathione, read-out: GSH EC50 (nM) (Mean ± SD); for GSH EC50 Relative to RTA 402 (fold) (Mean ± SD): benchmark RTA 402
Method: The effect of compound treatment on total glutathione levels was evaluated in the mouse AML-12 hepatocyte cell line. Glutathione—a tripeptide consisting of cysteine, glutamate, and glycine—is the major thiol-containing protein within the cell and regulates cellular redox balance. Glutathione also plays important roles in detoxification, protein glutathionylation, and iron-sulfur cluster biogenesis (Bachhawat and Yadav, 2018). Nrf2 regulates the expression of many genes involved in glutathione synthesis and metabolism, including both subunits of glutamate cysteine ligase (GCL), the enzyme that catalyzes the rate limiting step of glutathione biosynthesis (Thimmulappa et al., 2002). […] The next day, cells were treated with vehicle (DMSO) or test compound (0.03 nM to 1000 nM). Each well received a final concentration of 0.1% DMSO. Cells were incubated at 37° C., 5% CO2 for 24 hours. Total glutathione concentrations were measured using the GSH-Glo Glutathione Assay kit (Promega) according to the manufacturer's instructions. Briefly, a standard curve was prepared by serially diluting the provided glutathione solution. […] After a 30-minute incubation at room temperature, 100 μL of Luciferin detection reagent was added to all sample and standard wells and incubated for 15 minutes. Luminescence was measured using a PHERAstar plate reader. The EC50 value was determined using Excel and GraphPad Prism software. The basal concentration of glutathione was set to 0% and the highest concentration of glutathione produced following treatment with a test compound was set to 100% and a dose-response curve was generated. The dose-response curve was fit using nonlinear regression analysis and used to extrapolate the EC50 value.

[4] = biological target: CYP3A4 (Homo sapiens, UniProt P08684); assay: CYP3A4 (midazolam) inhibition in human liver microsomes; conditions: for CYP3A4 inhibition compared with historical data for RTA 402 and RTA 408: comparable conditions (FIG. 1); for inhibition at 10 min, 1 μM: human, probe midazolam (5 μM); for inhibition at 10 min, 1 μM / CYP3A4 (Midazolam) % Inhibition: human liver microsomes; for CYP3A4 inhibition lower than the corresponding unsubstituted compound: vs CC2, CC1 or CC3; for CYP3A4 inhibition lower than the corresponding unsubstituted compound / CYP3A4 (Midazolam) % Inhibition: 1 μM; for CYP3A4 (Midazolam) % Inhibition: historical data performed under comparable conditions
Chain of CYP3A4 (P08684 whole entry): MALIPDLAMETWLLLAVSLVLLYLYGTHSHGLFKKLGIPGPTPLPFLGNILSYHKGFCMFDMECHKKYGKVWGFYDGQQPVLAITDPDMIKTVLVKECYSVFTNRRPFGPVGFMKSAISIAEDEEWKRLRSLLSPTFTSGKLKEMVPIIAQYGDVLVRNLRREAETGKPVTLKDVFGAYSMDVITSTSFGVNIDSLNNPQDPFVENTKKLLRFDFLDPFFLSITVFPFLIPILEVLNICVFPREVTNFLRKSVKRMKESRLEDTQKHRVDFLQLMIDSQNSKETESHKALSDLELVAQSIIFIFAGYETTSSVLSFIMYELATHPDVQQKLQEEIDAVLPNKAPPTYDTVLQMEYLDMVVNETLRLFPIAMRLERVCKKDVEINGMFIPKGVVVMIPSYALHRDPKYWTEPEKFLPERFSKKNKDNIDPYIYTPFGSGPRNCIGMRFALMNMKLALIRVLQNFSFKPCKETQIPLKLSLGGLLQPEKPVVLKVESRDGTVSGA

Row | SMILES | IC50 [1] [nM] | NO IC50 Relative to RTA 402 (fold) (Mean ± SD) [1] | AREc32 EC2X Relative to RTA 402 (fold) (Mean ± SD) [2] | AREc32 Relative to CC in Same Experiment (Mean ± SD) ([2]; comparison compound CC1) | EC (2-fold) [2] [nM] | EC50 [3] [nM] | GSH EC50 Relative to RTA 402 (fold) (Mean ± SD) [3] | CYP3A4 inhibition compared with historical data for RTA 402 and RTA 408 [4] | inhibition at 10 min, 1 μM [4] [%] | CYP3A4 inhibition lower than the corresponding unsubstituted compound [4] [%] | CYP3A4 (Midazolam) % Inhibition [4] [%] | AREc32 Relative to CC in Same Experiment (Mean ± SD) ([2]; comparison compound CC2)
1 | CC1(C)CC[C@]2(c3nnc(CF)o3)CC[C@]3(C)[C@H](C(=O)C=C4[C@@]5(C)C=C(C#N)C(=O)C(C)(C)[C@@H]5CC[C@]43C)[C@@H]2C1 [Compound T11] | 0.98 | 0.37 ± 0.07 | 0.25 ± 0.08 | 0.27 ± 0.03 | 3.23 ± 0.77 | 0.54 ± 0.29 | 0.32 ± 0.13 | reduced CYP3A4 inhibition | 17.7 | 15 |  | 
2 | CC1(C)CC[C@]2(NC(=O)C(C)(F)F)CC[C@]3(C)[C@H](C(=O)C=C4[C@@]5(C)C=C(C#N)C(=O)C(C)(C)[C@@H]5CC[C@]43C)[C@@H]2C1 [RTA 408, omaveloxolone, reference compound] |  |  |  |  |  |  |  |  |  |  | 56.6 | 
3 | CC1(C)CC[C@]2(c3noc(CN)n3)CC[C@]3(C)[C@H](C(=O)C=C4[C@@]5(C)C=C(C#N)C(=O)C(C)(C)[C@@H]5CC[C@]43C)[C@@H]2C1 [Compound T2] | 1.15 | 0.38 ± 0.09 | 0.28 ± 0.04 |  | 3.67 ± 0.28 | 1.21 ± 1.15 | 0.47 ± 0.38 | reduced CYP3A4 inhibition | 21.4 | 53 |  | 0.43 ± 0.00
4 | CC1(C)CC[C@]2(c3nc(C(F)(F)F)no3)CC[C@]3(C)[C@H](C(=O)C=C4[C@@]5(C)C=C(C#N)C(=O)C(C)(C)[C@@H]5CC[C@]43C)[C@@H]2C1 [Compound T22] | 23.9 | 7.71 ± 2.33 | 3.45 ± 0.69 |  | 54.6 ± 8.83 | 17.6 ± 0.59 | 8.72 ± 1.98 |  |  |  |  | 
5 | CC1(C)CC[C@]2(c3noc(CCO)n3)CC[C@]3(C)[C@H](C(=O)C=C4[C@@]5(C)C=C(C#N)C(=O)C(C)(C)[C@@H]5CC[C@]43C)[C@@H]2C1 [Compound T5] | 1.57 | 0.42 ± 0.15 | 1.16 ± 0.19 |  | 11.7 ± 2.8 | 1.77 ± 0.98 | 0.65 ± 0.32 |  |  |  |  | 
6 | CC1(C)CC[C@]2(c3noc(CCN)n3)CC[C@]3(C)[C@H](C(=O)C=C4[C@@]5(C)C=C(C#N)C(=O)C(C)(C)[C@@H]5CC[C@]43C)[C@@H]2C1 [Compound T3] | 2.6 | 0.69 ± 0.22 | 0.91 ± 0.29 |  | 9.21 ± 3.66 | 1.45 ± 0.28 | 0.54 ± 0.06 |  |  |  |  | 
7 | CC1(C)CC[C@]2(c3nc(CCN)no3)CC[C@]3(C)[C@H](C(=O)C=C4[C@@]5(C)C=C(C#N)C(=O)C(C)(C)[C@@H]5CC[C@]43C)[C@@H]2C1 [Compound T16] | 1.26 ± 0.12 | 0.94 ± 0.19 | 0.30 ± 0.00 |  | 3.56 ± 0.31 | 0.58 ± 0.04 | 0.46 ± 0.09 |  |  |  |  | 
8 | COC(=O)[C@]12CCC(C)(C)C[C@H]1[C@H]1C(=O)C=C3[C@@]4(C)C=C(C#N)C(=O)C(C)(C)[C@@H]4CC[C@@]3(C)[C@]1(C)CC2 [RTA 402, Bardoxolone methyl, reference compound] |  |  |  |  |  |  |  |  |  |  | 48.4 | 
9 | C[C@@H]1C(=O)C(C#N)=C[C@]2(C)C3=CC(=O)[C@@H]4[C@@H]5CC(C)(C)CC[C@]5(c5nc(C(F)(F)F)no5)CC[C@@]4(C)[C@]3(C)CC[C@@H]12 [Compound T36] | 17.8 ± 9.89 | 3.95 ± 0.84 | 2.25 ± 0.31 |  | 33.7 ± 6.99 | 10.4 ± 1.62 | 5.40 ± 0.54 |  |  |  |  | 
10 | CC1(C)CC[C@]2(c3noc(C(F)F)n3)CC[C@]3(C)[C@H](C(=O)C=C4[C@@]5(C)C=C(C#N)C(=O)C(C)(C)[C@@H]5CC[C@]43C)[C@@H]2C1 [Compound T41] | 9.84 ± 3.52 | 2.79 ± 0.64 | 1.52 ± 0.19 |  | 24.2 ± 3.36 | 4.85 ± 0.36 | 2.38 ± 0.29 |  |  |  |  | 
11 | CC1(C)CC[C@]2(c3nnc(C(F)F)o3)CC[C@]3(C)[C@H](C(=O)C=C4[C@@]5(C)C=C(C#N)C(=O)C(C)(C)[C@@H]5CC[C@]43C)[C@@H]2C1 [Compound T44] | 4.24 ± 2.23 | 1.24 ± 0.04 | 0.57 ± 0.12 | 0.91 ± 0.21 | 8.62 ± 0.45 | 2.05 ± 0.64 | 1.04 ± 0.06 |  |  |  |  | 
12 | CCc1noc([C@]23CCC(C)(C)C[C@H]2[C@H]2C(=O)C=C4[C@@]5(C)C=C(C#N)C(=O)C(C)(C)[C@@H]5CC[C@@]4(C)[C@]2(C)CC3)n1 [Compound T23] | 4.85 | 1.93 ± 0.54 | 1.43 ± 0.26 |  | 20.2 ± 2.51 | 3.26 ± 0.51 | 2.05 ± 0.44 |  |  |  |  | 2.41 ± 0.42
13 | CCc1nnc([C@]23CCC(C)(C)C[C@H]2[C@H]2C(=O)C=C4[C@@]5(C)C=C(C#N)C(=O)C(C)(C)[C@@H]5CC[C@@]4(C)[C@]2(C)CC3)o1 [Compound T46] | 5.44 ± 2.81 | 1.60 ± 0.29 | 1.60 ± 0.44 |  | 24 ± 1.5 | 2.39 ± 0.29 | 1.24 ± 0.17 |  |  |  |  | 
